Data: publication PMC10239507, “Development of allosteric and selective CDK2 inhibitors for contraception with negative cooperativity to cyclin binding” (Nature Communications, 2023)

Experiments:
Assay in all cases: biochemical
[1] = target: T1, 371 kinases (kinase named in each endpoint) (Homo sapiens, UniProt O15264); details: P38D/MAPK13
T1 construct: purchased Reaction Biology

[2] = target: T2, 371 kinases (kinase named in each endpoint) (Homo sapiens, UniProt O60674); details: JAK2
T2 construct: purchased Reaction Biology

[3] = target: T3, 371 kinases (kinase named in each endpoint) (Homo sapiens, UniProt O75582); details: MSK1/RPS6KA5
T3 construct: purchased Reaction Biology

[4] = target: T4, 371 kinases (kinase named in each endpoint) (Homo sapiens, UniProt P07333); details: FMS
T4 construct: purchased Reaction Biology
T4 sequence (P07333 20-972): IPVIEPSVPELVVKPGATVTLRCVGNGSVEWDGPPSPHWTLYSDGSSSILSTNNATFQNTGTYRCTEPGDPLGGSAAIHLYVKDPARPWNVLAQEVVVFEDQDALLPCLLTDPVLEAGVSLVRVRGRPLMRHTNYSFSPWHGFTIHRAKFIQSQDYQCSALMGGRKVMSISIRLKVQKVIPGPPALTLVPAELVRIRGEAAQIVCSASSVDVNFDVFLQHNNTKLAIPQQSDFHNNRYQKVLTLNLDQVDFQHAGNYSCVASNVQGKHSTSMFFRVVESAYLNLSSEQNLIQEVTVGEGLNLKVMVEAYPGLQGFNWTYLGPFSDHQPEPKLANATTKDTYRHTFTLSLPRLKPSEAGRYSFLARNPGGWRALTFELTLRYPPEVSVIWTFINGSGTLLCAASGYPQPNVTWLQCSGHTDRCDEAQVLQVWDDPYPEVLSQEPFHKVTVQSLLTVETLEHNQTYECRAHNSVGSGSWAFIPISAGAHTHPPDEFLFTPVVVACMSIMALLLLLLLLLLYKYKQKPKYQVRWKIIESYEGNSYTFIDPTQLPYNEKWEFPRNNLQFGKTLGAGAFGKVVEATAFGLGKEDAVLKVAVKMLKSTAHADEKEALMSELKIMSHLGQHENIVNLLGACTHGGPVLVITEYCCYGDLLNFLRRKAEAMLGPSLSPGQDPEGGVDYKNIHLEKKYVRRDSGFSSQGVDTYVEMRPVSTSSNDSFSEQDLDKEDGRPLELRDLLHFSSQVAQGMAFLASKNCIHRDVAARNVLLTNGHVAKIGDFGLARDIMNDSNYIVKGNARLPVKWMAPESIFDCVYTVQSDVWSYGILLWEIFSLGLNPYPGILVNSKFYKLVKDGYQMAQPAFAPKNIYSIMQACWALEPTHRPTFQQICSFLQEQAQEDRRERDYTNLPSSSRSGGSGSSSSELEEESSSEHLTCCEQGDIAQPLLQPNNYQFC

[5] = target: T5, 371 kinases (kinase named in each endpoint) (Homo sapiens, UniProt P10721); details: C-KIT
T5 construct: purchased Reaction Biology

[6] = target: T6, 371 kinases (kinase named in each endpoint) (Homo sapiens, UniProt P16591); details: FER
T6 construct: purchased Reaction Biology

[7] = target: T7, 371 kinases (kinase named in each endpoint) (Homo sapiens, UniProt P17948); details: FLT1/VEGFR1
T7 construct: purchased Reaction Biology

[8] = target: T8, 371 kinases (kinase named in each endpoint) (Homo sapiens, UniProt P23443); details: P70S6K/RPS6KB1
T8 construct: purchased Reaction Biology

[9] = target: T9, 371 kinases (kinase named in each endpoint) (Homo sapiens, UniProt P27361); details: ERK1
T9 construct: purchased Reaction Biology

[10] = target: T10, 371 kinases (kinase named in each endpoint) (Homo sapiens, UniProt P29323); details: EPHB2
T10 construct: purchased Reaction Biology
T10 sequence (P29323 19-1055): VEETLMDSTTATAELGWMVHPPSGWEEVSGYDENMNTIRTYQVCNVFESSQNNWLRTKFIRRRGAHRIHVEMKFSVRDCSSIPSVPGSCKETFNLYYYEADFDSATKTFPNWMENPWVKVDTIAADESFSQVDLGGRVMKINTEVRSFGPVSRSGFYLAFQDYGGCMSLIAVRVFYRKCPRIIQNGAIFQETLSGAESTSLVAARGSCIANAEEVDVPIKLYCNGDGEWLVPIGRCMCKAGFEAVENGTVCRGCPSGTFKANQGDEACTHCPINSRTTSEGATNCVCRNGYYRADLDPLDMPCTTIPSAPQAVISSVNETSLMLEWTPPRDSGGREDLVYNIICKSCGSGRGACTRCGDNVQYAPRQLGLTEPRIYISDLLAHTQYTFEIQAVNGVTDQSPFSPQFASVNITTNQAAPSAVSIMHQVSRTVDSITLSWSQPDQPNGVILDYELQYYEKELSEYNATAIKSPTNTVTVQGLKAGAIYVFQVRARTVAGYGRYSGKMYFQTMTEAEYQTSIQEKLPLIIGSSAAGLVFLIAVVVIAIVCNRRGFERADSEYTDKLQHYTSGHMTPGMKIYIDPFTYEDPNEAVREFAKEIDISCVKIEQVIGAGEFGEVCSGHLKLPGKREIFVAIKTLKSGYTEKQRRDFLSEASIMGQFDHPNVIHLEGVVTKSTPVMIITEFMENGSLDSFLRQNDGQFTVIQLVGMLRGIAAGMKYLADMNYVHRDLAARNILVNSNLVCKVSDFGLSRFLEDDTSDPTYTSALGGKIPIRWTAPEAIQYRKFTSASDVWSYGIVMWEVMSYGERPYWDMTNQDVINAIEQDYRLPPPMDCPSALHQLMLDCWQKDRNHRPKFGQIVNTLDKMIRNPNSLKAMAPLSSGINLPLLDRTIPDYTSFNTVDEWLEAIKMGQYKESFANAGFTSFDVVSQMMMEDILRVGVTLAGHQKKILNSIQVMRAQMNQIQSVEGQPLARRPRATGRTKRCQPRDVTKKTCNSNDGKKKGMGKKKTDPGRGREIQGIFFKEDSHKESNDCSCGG

[11] = target: T11, 371 kinases (kinase named in each endpoint) (Homo sapiens, UniProt P35626); details: GRK3
T11 construct: purchased Reaction Biology
T11 sequence (P35626 whole entry): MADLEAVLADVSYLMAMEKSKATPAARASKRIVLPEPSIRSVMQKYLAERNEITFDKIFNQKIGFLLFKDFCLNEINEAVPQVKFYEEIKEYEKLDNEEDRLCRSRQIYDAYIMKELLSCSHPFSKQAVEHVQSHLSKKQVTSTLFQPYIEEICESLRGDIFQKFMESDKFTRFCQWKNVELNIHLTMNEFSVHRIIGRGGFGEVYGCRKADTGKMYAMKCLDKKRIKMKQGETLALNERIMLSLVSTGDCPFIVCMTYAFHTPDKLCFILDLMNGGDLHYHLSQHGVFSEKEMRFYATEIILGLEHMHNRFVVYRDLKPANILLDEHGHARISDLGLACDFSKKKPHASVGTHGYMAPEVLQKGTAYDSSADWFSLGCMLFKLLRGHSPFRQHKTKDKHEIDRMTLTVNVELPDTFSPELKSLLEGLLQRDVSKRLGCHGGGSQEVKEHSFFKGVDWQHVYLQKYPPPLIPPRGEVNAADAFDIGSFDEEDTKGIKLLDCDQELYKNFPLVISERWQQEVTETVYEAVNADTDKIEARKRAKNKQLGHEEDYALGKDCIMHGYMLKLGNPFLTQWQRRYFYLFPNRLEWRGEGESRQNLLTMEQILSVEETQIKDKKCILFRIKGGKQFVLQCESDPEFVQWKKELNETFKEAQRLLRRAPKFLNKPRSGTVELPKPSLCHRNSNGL

[12] = target: T12, 371 kinases (kinase named in each endpoint) (Homo sapiens, UniProt P42679); details: CTK/MATK
T12 construct: purchased Reaction Biology

[13] = target: T13, 371 kinases (kinase named in each endpoint) (Homo sapiens, UniProt P43405); details: SYK
T13 construct: purchased Reaction Biology

[14] = target: T14, 371 kinases (kinase named in each endpoint) (Homo sapiens, UniProt P45985); details: MKK4
T14 construct: purchased Reaction Biology

[15] = target: T15, 371 kinases (kinase named in each endpoint) (Homo sapiens, UniProt P49137); details: MAPKAPK2
T15 construct: purchased Reaction Biology

[16] = target: T16, 371 kinases (kinase named in each endpoint) (Homo sapiens, UniProt P50613); details: CDK7/CYCLIN H
T16 construct: purchased Reaction Biology

[17] = target: T17, 371 kinases (kinase named in each endpoint) (Homo sapiens, UniProt P68400); details: CK2A
T17 construct: purchased Reaction Biology

[18] = target: T18, 371 kinases (kinase named in each endpoint) (Homo sapiens, UniProt Q00537); details: CDK17/CYCLIN Y (PCTK2)
T18 construct: purchased Reaction Biology

[19] = target: T19, 371 kinases (kinase named in each endpoint) (Homo sapiens, UniProt Q07912); details: ACK1
T19 construct: purchased Reaction Biology

[20] = target: T20, 371 kinases (kinase named in each endpoint) (Homo sapiens, UniProt Q15208); details: STK38/NDR1
T20 construct: purchased Reaction Biology

[21] = target: T21, 371 kinases (kinase named in each endpoint) (Homo sapiens, UniProt Q15303); details: ERBB4/HER4
T21 construct: purchased Reaction Biology

[22] = target: T22, 371 kinases (kinase named in each endpoint) (Homo sapiens, UniProt Q15746); details: MLCK/MYLK
T22 construct: purchased Reaction Biology

[23] = target: T23, 371 kinases (kinase named in each endpoint) (Homo sapiens, UniProt Q16288); details: TRKC
T23 construct: purchased Reaction Biology

[24] = target: T24, 371 kinases (kinase named in each endpoint) (Homo sapiens, UniProt Q86V86); details: PIM3
T24 construct: purchased Reaction Biology

[25] = target: T25, 371 kinases (kinase named in each endpoint) (Homo sapiens, UniProt Q96PY6); details: NEK1
T25 construct: purchased Reaction Biology

[26] = target: T26, 371 kinases (kinase named in each endpoint) (Homo sapiens, UniProt Q9BUB5); details: MNK1
T26 construct: purchased Reaction Biology

[27] = target: T27, 371 kinases (kinase named in each endpoint) (Homo sapiens, UniProt Q9BXA7); details: STK22D/TSSK1
T27 construct: purchased Reaction Biology

[28] = target: T28, 371 kinases (kinase named in each endpoint) (Homo sapiens, UniProt Q9H0K1); details: SIK2
T28 construct: purchased Reaction Biology

[29] = target: T29, 371 kinases (kinase named in each endpoint) (Homo sapiens, UniProt Q9H2K8); details: TAOK3/JIK
T29 construct: purchased Reaction Biology

[30] = target: T30, 371 kinases (kinase named in each endpoint) (Homo sapiens, UniProt Q9H2X6); details: HIPK2
T30 construct: purchased Reaction Biology

[31] = target: T31, 371 kinases (kinase named in each endpoint) (Homo sapiens, UniProt Q9HAZ1); details: CLK4
T31 construct: purchased Reaction Biology
T31 sequence (Q9HAZ1 whole entry): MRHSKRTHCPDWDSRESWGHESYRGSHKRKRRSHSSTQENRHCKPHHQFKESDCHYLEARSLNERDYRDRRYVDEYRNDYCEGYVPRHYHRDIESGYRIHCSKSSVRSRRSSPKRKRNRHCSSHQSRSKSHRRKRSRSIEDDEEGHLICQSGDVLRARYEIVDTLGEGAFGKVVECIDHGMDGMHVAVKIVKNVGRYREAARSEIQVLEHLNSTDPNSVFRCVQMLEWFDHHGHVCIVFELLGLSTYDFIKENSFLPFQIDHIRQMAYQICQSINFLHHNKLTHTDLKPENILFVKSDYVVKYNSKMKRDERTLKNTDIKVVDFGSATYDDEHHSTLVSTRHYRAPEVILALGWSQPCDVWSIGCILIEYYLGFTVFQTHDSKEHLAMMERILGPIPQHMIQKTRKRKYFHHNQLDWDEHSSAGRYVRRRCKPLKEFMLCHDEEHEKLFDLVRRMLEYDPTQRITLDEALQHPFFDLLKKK

[32] = target: T32, 371 kinases (kinase named in each endpoint) (Homo sapiens, UniProt Q9UL54); details: TAOK2/TAO1
T32 construct: purchased Reaction Biology
T32 sequence (Q9UL54 whole entry): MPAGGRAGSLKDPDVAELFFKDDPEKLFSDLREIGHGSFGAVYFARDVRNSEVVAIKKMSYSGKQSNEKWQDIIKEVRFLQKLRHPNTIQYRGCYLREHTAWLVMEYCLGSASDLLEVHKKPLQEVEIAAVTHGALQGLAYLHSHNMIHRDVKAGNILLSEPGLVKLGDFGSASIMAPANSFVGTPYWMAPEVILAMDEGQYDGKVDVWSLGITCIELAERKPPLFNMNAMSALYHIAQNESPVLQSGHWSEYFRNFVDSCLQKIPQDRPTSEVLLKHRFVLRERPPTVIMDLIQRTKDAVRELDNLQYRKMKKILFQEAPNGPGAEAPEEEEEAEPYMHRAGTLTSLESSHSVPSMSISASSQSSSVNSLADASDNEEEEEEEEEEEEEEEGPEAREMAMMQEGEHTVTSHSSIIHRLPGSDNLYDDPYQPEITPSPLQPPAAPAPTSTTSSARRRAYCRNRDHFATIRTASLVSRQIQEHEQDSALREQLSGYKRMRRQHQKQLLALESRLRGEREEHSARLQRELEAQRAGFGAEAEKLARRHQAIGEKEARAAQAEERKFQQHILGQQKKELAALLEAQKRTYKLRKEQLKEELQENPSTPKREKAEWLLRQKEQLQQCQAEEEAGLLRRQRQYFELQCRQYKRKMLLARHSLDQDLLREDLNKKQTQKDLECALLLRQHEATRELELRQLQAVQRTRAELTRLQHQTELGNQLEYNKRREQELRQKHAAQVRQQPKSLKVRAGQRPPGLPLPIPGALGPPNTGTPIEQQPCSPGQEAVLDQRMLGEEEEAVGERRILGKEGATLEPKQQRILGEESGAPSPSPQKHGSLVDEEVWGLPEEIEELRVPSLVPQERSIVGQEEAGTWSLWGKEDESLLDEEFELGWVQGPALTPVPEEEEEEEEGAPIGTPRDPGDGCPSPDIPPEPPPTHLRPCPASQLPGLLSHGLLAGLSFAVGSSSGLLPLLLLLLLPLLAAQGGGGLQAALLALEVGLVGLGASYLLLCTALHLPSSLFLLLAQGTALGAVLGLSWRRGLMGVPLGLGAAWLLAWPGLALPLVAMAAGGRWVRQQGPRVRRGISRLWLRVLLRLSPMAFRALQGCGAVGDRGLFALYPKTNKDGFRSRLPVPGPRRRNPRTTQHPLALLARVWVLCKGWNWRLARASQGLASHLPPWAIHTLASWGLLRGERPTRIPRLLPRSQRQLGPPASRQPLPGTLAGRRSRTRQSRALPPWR

[33] = target: T33, 371 kinases (kinase named in each endpoint) (Homo sapiens, UniProt Q9Y2U5); details: MEKK2
T33 construct: purchased Reaction Biology

[34] = target: T34, 371 kinases (kinase named in each endpoint) (Homo sapiens, UniProt Q9Y463); details: DYRK1B
T34 construct: purchased Reaction Biology

[35] = target: T35, 371 kinases (kinase named in each endpoint) (Homo sapiens, UniProt Q9Y4K4); details: KHS/MAP4K5
T35 construct: purchased Reaction Biology

[36] = target: T36, 371 kinases (kinase named in each endpoint) (Homo sapiens, UniProt Q9Y6M4); details: CK1G3
T36 construct: purchased Reaction Biology

T1 sequence (O15264 whole entry): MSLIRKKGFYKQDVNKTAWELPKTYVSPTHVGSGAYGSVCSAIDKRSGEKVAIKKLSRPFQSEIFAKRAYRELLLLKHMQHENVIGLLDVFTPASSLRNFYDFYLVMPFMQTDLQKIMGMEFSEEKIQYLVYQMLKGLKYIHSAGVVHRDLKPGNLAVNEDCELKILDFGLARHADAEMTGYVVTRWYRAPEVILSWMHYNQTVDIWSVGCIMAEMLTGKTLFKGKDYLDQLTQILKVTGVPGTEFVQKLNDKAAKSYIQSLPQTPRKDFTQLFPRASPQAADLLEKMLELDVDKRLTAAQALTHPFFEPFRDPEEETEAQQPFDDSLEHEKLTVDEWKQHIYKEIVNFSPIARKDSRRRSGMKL

Question: With `O=C(O)c1cc(C(F)(F)F)ccc1NCCc1c[nH]c2cc(Br)ccc12` [Compound 5, 2-((2-(6-Bromo-1H-indol-3-yl)ethyl)amino)−5-(trifluoromethyl)benzoic Acid] as the compound, how does the activity at 10 µM [1] read?
Answer: The activity at 10 µM was 80.9 ± 2.2%.

Question: What about the activity at 10 µM [2] of the same compound?
Answer: Its activity at 10 µM is 78.8 ± 1.9%.

Question: And the activity at 10 µM [3]?
Answer: Its activity at 10 µM is 82.2 ± 0.5%.

Question: What about the activity at 10 µM [4] of the same compound?
Answer: The activity at 10 µM was 98 ± 1.7%.

Question: What about the activity at 10 µM [5] of the same compound?
Answer: Its activity at 10 µM is 84.5 ± 2.5%.

Question: What about the activity at 10 µM [6] of the same compound?
Answer: The activity at 10 µM was 89.6 ± 2%.

Question: What about the activity at 10 µM [7] of the same compound?
Answer: The activity at 10 µM was 85 ± 0.7%.

Question: What about the activity at 10 µM [8] of the same compound?
Answer: Its activity at 10 µM is 85.4 ± 0.7%.

Question: And the activity at 10 µM [9]?
Answer: The activity at 10 µM was 99.7 ± 0.9%.

Question: What about the activity at 10 µM [10] of the same compound?
Answer: Its activity at 10 µM is 89.8%.

Question: And the activity at 10 µM [11]?
Answer: The activity at 10 µM was 93.7 ± 1.2%.

Question: What about the activity at 10 µM [12] of the same compound?
Answer: Its activity at 10 µM is 71.1 ± 3.8%.

Question: What about the activity at 10 µM [13] of the same compound?
Answer: Its activity at 10 µM is 85.8 ± 1.6%.

Question: And the activity at 10 µM [14]?
Answer: Its activity at 10 µM is 115 ± 4.5%.

Question: What about the activity at 10 µM [15] of the same compound?
Answer: The activity at 10 µM was 95.2 ± 1.8%.

Question: What about the activity at 10 µM [16] of the same compound?
Answer: The activity at 10 µM was 104 ± 3.6%.

Question: And the activity at 10 µM [17]?
Answer: The activity at 10 µM was 59.1 ± 0.1%.

Question: What about the activity at 10 µM [18] of the same compound?
Answer: The activity at 10 µM was 124%.

Question: What about the activity at 10 µM [19] of the same compound?
Answer: Its activity at 10 µM is 92 ± 0.4%.

Question: What about the activity at 10 µM [20] of the same compound?
Answer: The activity at 10 µM was 88 ± 0.7%.

Question: What about the activity at 10 µM [21] of the same compound?
Answer: Its activity at 10 µM is 96.2 ± 1%.

Question: And the activity at 10 µM [22]?
Answer: The activity at 10 µM was 57.6 ± 2%.

Question: What about the activity at 10 µM [23] of the same compound?
Answer: Its activity at 10 µM is 91 ± 0.5%.

Question: What about the activity at 10 µM [24] of the same compound?
Answer: The activity at 10 µM was 20.6 ± 1%.

Question: What about the activity at 10 µM [25] of the same compound?
Answer: Its activity at 10 µM is 91.8 ± 2.3%.

Question: What about the activity at 10 µM [26] of the same compound?
Answer: Its activity at 10 µM is 79 ± 0.9%.

Question: And the activity at 10 µM [27]?
Answer: Its activity at 10 µM is 103.5 ± 0.1%.

Question: And the activity at 10 µM [28]?
Answer: Its activity at 10 µM is 81 ± 0.3%.

Question: What about the activity at 10 µM [29] of the same compound?
Answer: The activity at 10 µM was 83.3 ± 2.1%.

Question: And the activity at 10 µM [30]?
Answer: The activity at 10 µM was 79.9 ± 0.7%.

Question: What about the activity at 10 µM [31] of the same compound?
Answer: The activity at 10 µM was 97.4 ± 0.8%.

Question: And the activity at 10 µM [32]?
Answer: Its activity at 10 µM is 100.9 ± 0.2%.

Question: What about the activity at 10 µM [33] of the same compound?
Answer: Its activity at 10 µM is 107.9 ± 0.2%.

Question: And the activity at 10 µM [34]?
Answer: The activity at 10 µM was 64.8 ± 1.1%.

Question: And the activity at 10 µM [35]?
Answer: Its activity at 10 µM is 72 ± 2.8%.

Question: What about the activity at 10 µM [36] of the same compound?
Answer: Its activity at 10 µM is 96.3 ± 0.6%.
